For assay [1], the target named is Proto-oncogene tyrosine-protein kinase Src (Homo sapiens) (UniProt P12931). Nature of the assay: Inhibition of human full length SRC expressed in baculovirus assessed as substrate phosphorylation using fluorescence-labelled peptides as substrate at 0.1 uM after 90 mins by microfluidic peptide phosphorylation assay.
The target of assay [2] is T1, Serine/threonine-protein kinase DCLK2 (Homo sapiens) (UniProt Q8N568).
T1 sequence (whole entry): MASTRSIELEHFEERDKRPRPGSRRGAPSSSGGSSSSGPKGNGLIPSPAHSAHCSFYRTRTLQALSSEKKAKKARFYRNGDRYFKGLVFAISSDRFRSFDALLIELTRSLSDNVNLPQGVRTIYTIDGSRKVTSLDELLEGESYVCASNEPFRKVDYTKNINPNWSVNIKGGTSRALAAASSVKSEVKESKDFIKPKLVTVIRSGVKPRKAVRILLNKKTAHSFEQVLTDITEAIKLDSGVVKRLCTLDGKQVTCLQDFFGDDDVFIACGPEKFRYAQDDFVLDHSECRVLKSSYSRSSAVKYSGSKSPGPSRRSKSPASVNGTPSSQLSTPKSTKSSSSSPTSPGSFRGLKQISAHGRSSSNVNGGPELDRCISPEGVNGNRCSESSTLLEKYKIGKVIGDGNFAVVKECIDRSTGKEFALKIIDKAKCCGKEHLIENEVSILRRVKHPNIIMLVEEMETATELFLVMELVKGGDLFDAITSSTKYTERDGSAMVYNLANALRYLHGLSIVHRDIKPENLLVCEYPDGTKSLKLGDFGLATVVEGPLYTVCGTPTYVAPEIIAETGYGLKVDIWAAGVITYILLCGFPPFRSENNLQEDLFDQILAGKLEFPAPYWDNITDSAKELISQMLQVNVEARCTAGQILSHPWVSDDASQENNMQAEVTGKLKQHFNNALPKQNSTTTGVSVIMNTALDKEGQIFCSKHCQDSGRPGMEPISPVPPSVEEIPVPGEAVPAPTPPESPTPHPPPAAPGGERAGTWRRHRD
Nature of the assay: Inhibition of human full length DCAMKL2 expressed in baculovirus assessed as substrate phosphorylation using fluorescence-labelled peptides as substrate at 0.2 uM after 90 mins by microfluidic peptide phosphorylation assay.

Assay [3] has as its target MAP kinase-activated protein kinase 3 (Homo sapiens) (UniProt Q16644). The assay can be described thus: Inhibition of human full length MAPKAPK3 expressed in Escherichia coli cell assessed as substrate phosphorylation using fluorescence-labelled peptides as substrate at 9 uM after 90 mins by microfluidic peptide phosphorylation assay.
The target in assay [4] is Serine/threonine-protein kinase pim-1 (Homo sapiens) (UniProt P11309). The assay can be described thus: Inhibition of human full length PIM1 expressed in baculovirus assessed as substrate phosphorylation using fluorescence-labelled peptides as substrate at 95 uM after 90 mins by microfluidic peptide phosphorylation assay.
In assay [5] the target is Protein kinase C beta type (Homo sapiens) (UniProt P05771). The assay can be described thus: Inhibition of human full length PKC beta2 expressed in baculovirus assessed as substrate phosphorylation using fluorescence-labelled peptides as substrate at 95 uM after 90 mins by microfluidic peptide phosphorylation assay.
For assay [6], the target named is Calcium/calmodulin-dependent protein kinase type II subunit delta (Homo sapiens) (UniProt Q13557). Nature of the assay: Inhibition of human full length CAMK2D expressed in baculovirus assessed as substrate phosphorylation using fluorescence-labelled peptides as substrate at 1000 uM after 90 mins by microfluidic peptide phosphorylation assay.
The target of assay [7] is T2, Serine/threonine-protein kinase Chk1 (Homo sapiens) (UniProt O14757).
T2 sequence (whole entry): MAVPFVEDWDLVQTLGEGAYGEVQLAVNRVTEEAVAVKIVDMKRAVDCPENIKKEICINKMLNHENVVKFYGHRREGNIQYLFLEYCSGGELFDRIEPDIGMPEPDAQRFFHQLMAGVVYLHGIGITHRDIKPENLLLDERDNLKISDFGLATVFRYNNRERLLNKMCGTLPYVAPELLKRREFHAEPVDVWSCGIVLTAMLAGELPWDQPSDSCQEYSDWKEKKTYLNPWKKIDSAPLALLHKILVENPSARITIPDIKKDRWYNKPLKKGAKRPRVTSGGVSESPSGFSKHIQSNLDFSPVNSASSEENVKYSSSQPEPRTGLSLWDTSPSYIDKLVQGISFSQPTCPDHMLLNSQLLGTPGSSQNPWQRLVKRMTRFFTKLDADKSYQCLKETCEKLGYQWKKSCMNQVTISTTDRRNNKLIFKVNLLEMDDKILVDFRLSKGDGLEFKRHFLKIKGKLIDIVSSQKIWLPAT
Nature of the assay: Inhibition of human full length CHK1 expressed in baculovirus assessed as substrate phosphorylation using fluorescence-labelled peptides as substrate at 1000 uM after 90 mins by microfluidic peptide phosphorylation assay.

Assay [8] concerns the target T3, Serine/threonine-protein kinase Sgk1 (Homo sapiens) (UniProt O00141).
T3 sequence (whole entry): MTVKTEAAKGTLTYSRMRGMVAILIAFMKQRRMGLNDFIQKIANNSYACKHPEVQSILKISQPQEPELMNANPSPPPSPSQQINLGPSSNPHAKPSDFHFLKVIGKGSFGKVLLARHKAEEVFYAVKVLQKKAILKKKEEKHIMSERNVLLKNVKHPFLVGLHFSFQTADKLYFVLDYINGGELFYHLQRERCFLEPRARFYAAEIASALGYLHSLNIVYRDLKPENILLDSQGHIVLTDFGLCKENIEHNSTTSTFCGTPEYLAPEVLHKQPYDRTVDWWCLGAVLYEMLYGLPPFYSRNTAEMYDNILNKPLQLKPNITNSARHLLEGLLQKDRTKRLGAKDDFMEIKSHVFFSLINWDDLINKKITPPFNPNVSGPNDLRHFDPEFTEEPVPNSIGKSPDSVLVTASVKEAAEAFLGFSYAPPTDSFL
Nature of the assay: Inhibition of human truncated SGK1 expressed in baculovirus assessed as substrate phosphorylation using fluorescence-labelled peptides as substrate at 1000 uM after 90 mins by microfluidic peptide phosphorylation assay.

Assay [9] addresses T1, Serine/threonine-protein kinase DCLK2 (Homo sapiens). Nature of the assay: Inhibition of human full length DCAMKL2 expressed in baculovirus assessed as substrate phosphorylation using fluorescence-labelled peptides as substrate at 1000 uM after 90 mins by microfluidic peptide phosphorylation assay.

Experimental findings from ChEMBL document CHEMBL3132769, “Fragment growing to retain or alter the selectivity of anchored kinase hinge-binding fragments” (Medchemcomm, 2014) are described below.

Chain of Protein kinase C beta type (Homo sapiens) (P05771 2-671 limits assumed): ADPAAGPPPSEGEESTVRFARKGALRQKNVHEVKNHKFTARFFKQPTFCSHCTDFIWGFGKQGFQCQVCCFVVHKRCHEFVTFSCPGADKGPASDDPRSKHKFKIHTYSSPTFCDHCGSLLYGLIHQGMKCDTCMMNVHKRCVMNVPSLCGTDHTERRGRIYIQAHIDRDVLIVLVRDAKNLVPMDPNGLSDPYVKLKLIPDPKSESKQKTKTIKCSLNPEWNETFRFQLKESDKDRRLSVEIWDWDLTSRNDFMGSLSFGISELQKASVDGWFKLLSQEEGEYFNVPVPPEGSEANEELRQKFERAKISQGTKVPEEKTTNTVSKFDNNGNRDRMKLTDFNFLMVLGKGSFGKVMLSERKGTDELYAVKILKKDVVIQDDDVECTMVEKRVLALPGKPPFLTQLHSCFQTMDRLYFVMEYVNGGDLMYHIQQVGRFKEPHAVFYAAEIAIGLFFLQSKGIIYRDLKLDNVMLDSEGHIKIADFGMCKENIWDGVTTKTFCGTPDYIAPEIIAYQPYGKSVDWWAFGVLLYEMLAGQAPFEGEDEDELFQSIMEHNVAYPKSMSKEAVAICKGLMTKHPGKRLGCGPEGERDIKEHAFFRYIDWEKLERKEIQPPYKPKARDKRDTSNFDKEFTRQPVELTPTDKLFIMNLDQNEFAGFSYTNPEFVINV
Chain of Proto-oncogene tyrosine-protein kinase Src (Homo sapiens) (P12931 2-536 limits assumed): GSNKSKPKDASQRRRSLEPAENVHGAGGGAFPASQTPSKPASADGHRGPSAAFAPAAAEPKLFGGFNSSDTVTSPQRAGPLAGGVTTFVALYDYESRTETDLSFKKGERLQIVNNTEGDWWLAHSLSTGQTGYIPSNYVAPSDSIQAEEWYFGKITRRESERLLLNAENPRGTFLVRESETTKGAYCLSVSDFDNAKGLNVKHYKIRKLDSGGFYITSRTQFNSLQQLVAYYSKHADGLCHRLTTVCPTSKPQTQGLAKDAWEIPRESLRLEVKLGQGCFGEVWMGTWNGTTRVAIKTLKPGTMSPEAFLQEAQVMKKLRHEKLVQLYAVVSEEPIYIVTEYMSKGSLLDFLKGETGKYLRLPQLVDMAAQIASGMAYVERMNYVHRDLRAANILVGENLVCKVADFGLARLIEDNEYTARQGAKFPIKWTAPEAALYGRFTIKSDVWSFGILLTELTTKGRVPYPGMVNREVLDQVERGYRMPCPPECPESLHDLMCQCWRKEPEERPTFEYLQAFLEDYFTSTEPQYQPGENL
Chain of Serine/threonine-protein kinase pim-1 (Homo sapiens) (P11309 whole entry, looked up): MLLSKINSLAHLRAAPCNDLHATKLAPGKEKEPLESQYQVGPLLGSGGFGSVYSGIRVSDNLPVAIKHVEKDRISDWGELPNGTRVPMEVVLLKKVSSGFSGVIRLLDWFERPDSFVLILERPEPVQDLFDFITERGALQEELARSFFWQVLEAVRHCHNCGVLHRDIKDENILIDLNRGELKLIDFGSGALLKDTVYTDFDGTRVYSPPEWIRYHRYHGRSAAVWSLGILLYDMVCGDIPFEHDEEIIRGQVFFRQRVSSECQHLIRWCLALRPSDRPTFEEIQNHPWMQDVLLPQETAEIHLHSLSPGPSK
Chain of MAP kinase-activated protein kinase 3 (Homo sapiens) (Q16644 whole entry, looked up): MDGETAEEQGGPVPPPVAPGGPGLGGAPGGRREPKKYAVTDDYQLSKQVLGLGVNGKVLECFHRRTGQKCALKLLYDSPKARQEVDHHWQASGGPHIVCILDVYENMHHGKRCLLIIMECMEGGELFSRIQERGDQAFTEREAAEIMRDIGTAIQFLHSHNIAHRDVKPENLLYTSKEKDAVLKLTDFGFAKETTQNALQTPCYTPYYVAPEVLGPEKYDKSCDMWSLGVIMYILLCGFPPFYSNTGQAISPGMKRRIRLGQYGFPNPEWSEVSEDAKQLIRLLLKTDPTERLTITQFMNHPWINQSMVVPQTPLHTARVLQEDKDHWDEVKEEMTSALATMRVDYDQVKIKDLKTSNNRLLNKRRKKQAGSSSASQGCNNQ
Chain of Calcium/calmodulin-dependent protein kinase type II subunit delta (Homo sapiens) (Q13557 whole entry): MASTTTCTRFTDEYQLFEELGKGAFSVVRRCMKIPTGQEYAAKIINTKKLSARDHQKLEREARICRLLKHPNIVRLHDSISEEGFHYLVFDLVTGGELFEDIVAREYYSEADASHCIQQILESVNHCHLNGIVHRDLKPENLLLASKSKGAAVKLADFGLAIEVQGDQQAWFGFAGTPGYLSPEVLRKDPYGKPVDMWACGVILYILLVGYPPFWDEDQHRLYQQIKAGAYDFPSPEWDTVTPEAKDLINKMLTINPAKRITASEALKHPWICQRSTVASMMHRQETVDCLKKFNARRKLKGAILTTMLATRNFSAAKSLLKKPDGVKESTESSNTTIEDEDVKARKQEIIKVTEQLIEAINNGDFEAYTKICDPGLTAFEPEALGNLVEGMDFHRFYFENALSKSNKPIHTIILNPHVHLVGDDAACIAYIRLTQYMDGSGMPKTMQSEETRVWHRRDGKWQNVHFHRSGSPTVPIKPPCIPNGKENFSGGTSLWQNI

Consider `C[C@H](CN(C)C)Oc1nc(Nc2cc3cccc(Cl)c3cn2)cnc1C#N`, for which the inhibition in assay [1] was 3%. As for `Clc1ccc(C2(c3ccc(-c4ncnc5[nH]cnc45)cc3)CCNCC2)cc1`, the inhibition in assay [2] was determined as 10%.

For the compound `NCC1CN(c2ncnc3[nH]c4cnccc4c23)CCO1` (centres undefined), in assay [3], the inhibition was determined as 74%. As for `NCCc1ccc(-c2ncnc3[nH]cnc23)cc1`, the inhibition in assay [4] came out at 42.5%; in assay [5], 0%.

Regarding `c1cnc2[nH]ccc2c1`, the inhibition in assay [6] was determined as 37.5%; in assay [7], 52%; in assay [8], 94%; in [9], 15%.

As a reminder, the inhibition is the percentage by which the read-out fell short of the control.
